Results as given in patent publication US8557998B2, “Benzylpiperizine compound” (Dainippon Sumitomo Pharma Co., Ltd, priority 2008, dated 2013).
pIC50, pKi: −log10 of the molar value.

Columns and labels:
CYP2D6 [1] = biological target: T1, CYP2D6 (Homo sapiens, UniProt P10635); assay: CYP2D6 inhibition screening test; type: in vitro ADME; details: pooled human liver microsomes, substrate bufuralol, 37° C. 10 min, 1'-hydroxybufuralol by LC-MSMS; read-out: Test Example 3: CYP2D6 Inhibition IC50
T1 construct: Pooled of Human Liver Microsomes was purchased from Xenotech, LLC; tissue Xenotech, LLC; host or cells: pooled human liver microsomes
Description: CYP2D6 Inhibition Screening Test
Bufuralol was purchased from Sigma-Aldrich Corp., and Pooled of Human Liver Microsomes was purchased from Xenotech, LLC.
150 μL of Pooled Human Liver Microsomes (20 mg/ml), 12 mL of a 0.5 M potassium phosphate buffer, 1.2 mL of a 165 mM magnesium chloride solution, and 34.65 mL of distilled water were mixed.
Bufuralol was dissolved at a concentration of 2.0 mM in DMSO and then diluted 200-fold with distilled water.
3-3 Experimental Procedures
1. A 10 mM DMSO solution of a test drug was serially diluted 5-fold with DMSO for 4 serial dilutions to prepare 10, 2, 0.4, and 0.08 mM DMSO solutions.
2. Each test drug solution of the step 1. and DMSO were separately diluted 96-fold with a human liver microsome solution, and each dilution was dispensed and 80 μL of each dilution to microplates.
3. 10 μL of a substrate solution and 10 μL of a β-NADPH solution were added to the well of the step 2., followed by incubation at 37° C. for 10 min.
4. The reaction was terminated by the addition of 300 μL of methanol.
5. The reaction mixture was filtered, and LC-MSMS analysis was conducted.
3-4 Quantification and Calculation
The amount of 1′-hydroxybufuralol produced was quantified by LC-MSMS, and this amount was used as a metabolic activity of CYP2D6 for each well. The remaining activity of each sample was determined by comparison with the activity obtained from DMSO as a test drug. An IC50 value of CYP2D6 inhibition was determined from the test drug concentration and remaining activity. The IC50 value was calculated by linear interpolation between two points that span the remaining activity 50%. A larger value of IC50 of CYP2D6 inhibition means weaker CYP2D6 inhibition.

[2] = biological target: T2, human serotonin transporter (h-SERT) (Homo sapiens, UniProt P31645); assay: Screening test using [3H]citalopram binding for evaluating human serotonin reuptake inhibitory effect; details: h-SERT/CHO membrane preparation, [3H]citalopram approximately 2 nM, room temperature 60 minutes; read-out: Test Example 1: h-SERT binding inhibition constant (Ki)
T2 construct: expressed in transfected cells; host or cells: CHO cells (h-SERT/CHO), Geneticin-selected
Text: CHO cells containing a human serotonin transporter (h-SERT) expressed therein (h-SERT/CHO) were used in the experiment.
1-2 Receptor Binding Experiment
A smaller value of the h-SERT binding inhibition constant Ki means a higher human serotonin reuptake inhibitory effect.

[3] = biological target: T2, human serotonin transporter (h-SERT); assay: Serotonin transporter function inhibition test using [3H]5-HT; type: cell-based; details: h-SERT/CHO cells, [3H]5-HT uptake approximately 10 nM, 37° C. 10 minutes; read-out: Test Example 5: h-SERT Function Inhibition Constant (Ki)
Description: 1-1 Cells Used and Preparation of Cell Suspension
CHO cells containing a human serotonin transporter (h-SERT) expressed therein (h-SERT/CHO) were used in the experiment. […] The collected cells were suspended in a buffer solution containing 0.1 mM CaCl2 and 1 mM MgCl2 in PBS (hereinafter, referred to as PBSCM) and stored in ice until use.
Specifically, 149 μl of the cell suspension (10×10^4 cells/well) and 1 μl of a solution of a test drug dissolved in dimethyl sulfoxide were preincubated at 37° C. for 10 minutes.

[4] = biological target: T3, human serotonin 1A receptor (h-5-HT1A) (Homo sapiens, UniProt P08908)
T3 sequence (P08908 1-422): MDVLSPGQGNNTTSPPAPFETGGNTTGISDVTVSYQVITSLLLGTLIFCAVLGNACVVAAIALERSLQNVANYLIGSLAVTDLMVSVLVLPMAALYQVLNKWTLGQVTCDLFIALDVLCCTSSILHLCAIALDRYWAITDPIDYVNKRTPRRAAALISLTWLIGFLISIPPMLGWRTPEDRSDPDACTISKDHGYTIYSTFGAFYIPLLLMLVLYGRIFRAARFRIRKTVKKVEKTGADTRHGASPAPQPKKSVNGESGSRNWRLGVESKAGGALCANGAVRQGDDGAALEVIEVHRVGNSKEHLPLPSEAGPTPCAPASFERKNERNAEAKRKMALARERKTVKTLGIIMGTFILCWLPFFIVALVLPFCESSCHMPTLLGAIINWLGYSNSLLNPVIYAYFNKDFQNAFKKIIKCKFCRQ
Description: The cells were cultured in F12 containing 10% FCS, 500 μg/ml Geneticin, and 100 U/ml penicillin-100 μg/ml streptomycin (all manufactured by Sigma-Aldrich Corp.) in a 5% CO2 incubator. […] Specifically, the cells were dissociated/collected using 50 mM Tris-HCl (pH=7.4). The resulting cells were homogenized using a Teflon (registered trademark) homogenizer and then centrifuged (48,000×g, 20 min, 4° C.). The pellet was resuspended in an appropriate amount of 50 mM Tris-HCl (pH=7.4) and stored at −80° C. until use. The amount of the protein in the membrane preparation was quantified using Dye Reagent Concentrate (manufactured by Bio-Rad Laboratories, Inc.) with bovine serum albumin (manufactured by Sigma-Aldrich Corp.) as a standard.
The reaction solution was reacted at room temperature for 30 minutes and then rapidly filtered by suction at a low pressure through glass fiber filter paper. The glass fiber filter paper was washed twice with 250 μl of 50 mM Tris-HCl (pH=7.4) and then added to a counting vial containing 4 ml of ACS-II (manufactured by Amersham Biosciences). Receptor binding radioactivity remaining on the filter paper was measured using a liquid scintillation counter.

CYP2D6 [5] = biological target: T1, CYP2D6; assay: Screening test of the rate of CYP2D6 contribution in human liver microsomal metabolism; type: in vitro ADME; set-up: key to Rate of CYP2D6 Contribution indeterminable due to high stability for human microsomal metabolism: —*^): The rate of CYP2D6 contribution was indeterminable in the present test due to high stability for human microsomal metabolism; details: 1 mg/mL human liver microsomes, 1 μM test substance, 37° C.; for Test Example 4: Rate of CYP2D6 Contribution: with/without quinidine 4 μM
Description: Screening Test of the Rate of CYP2D6 Contribution in Human Liver Microsomal Metabolism
0.2 mL of a 50 mM potassium phosphate buffer solution (pH 7.4) containing NADPH (final concentration: 3 mM, manufactured by Oriental Yeast Co., Ltd.), 1 mg/mL human liver microsomes (manufactured by XENOTECH, LLC), and a 1 μM test substance was heated on a water bath at 37° C. for metabolic reaction. After the reaction for 15 minutes or 30 minutes, methanol was added in a volume 3 times that of the reaction solution, and the mixture was stirred to terminate the reaction. This reaction solution was centrifuged for protein precipitation. Then, the supernatant was collected and subjected to LC-MS/MS analysis. The results were analyzed as follows:
The test substance was quantified, and time-dependent change in the amount of the substance remaining was logarithmically plotted. A metabolic rate was calculated from the slope.
The ratio of the metabolic rate obtained by the addition of quinidine (final concentration: 4 μM) to the reaction solution to the metabolic rate obtained without the addition was used as the rate of contribution of enzymes other than CYP2D6, and the rate of contribution obtained by subtracting this rate of contribution of other enzymes from the total was used as the rate of CYP2D6 contribution. Specifically, it was calculated according to the equation: Rate of contribution(%)={1−(metabolic rate [with quinidine]/metabolic rate[without quinidine])}×100. A smaller value of the rate of CYP2D6 contribution means smaller CYP2D6 contribution.

T1 sequence (P10635 whole entry): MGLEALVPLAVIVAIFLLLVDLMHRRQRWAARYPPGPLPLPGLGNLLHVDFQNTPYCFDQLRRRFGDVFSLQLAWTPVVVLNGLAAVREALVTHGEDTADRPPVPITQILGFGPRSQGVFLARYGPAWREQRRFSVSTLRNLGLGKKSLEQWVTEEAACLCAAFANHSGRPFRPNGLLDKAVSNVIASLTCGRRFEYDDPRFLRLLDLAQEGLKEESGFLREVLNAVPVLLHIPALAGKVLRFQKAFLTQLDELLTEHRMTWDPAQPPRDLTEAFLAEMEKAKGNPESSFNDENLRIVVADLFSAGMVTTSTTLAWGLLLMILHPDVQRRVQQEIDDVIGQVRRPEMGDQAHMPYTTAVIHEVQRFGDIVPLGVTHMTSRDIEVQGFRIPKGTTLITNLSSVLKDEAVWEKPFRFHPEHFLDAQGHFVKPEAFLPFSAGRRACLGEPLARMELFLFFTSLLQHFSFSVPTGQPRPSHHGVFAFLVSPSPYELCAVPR
T2 sequence (P31645 whole entry): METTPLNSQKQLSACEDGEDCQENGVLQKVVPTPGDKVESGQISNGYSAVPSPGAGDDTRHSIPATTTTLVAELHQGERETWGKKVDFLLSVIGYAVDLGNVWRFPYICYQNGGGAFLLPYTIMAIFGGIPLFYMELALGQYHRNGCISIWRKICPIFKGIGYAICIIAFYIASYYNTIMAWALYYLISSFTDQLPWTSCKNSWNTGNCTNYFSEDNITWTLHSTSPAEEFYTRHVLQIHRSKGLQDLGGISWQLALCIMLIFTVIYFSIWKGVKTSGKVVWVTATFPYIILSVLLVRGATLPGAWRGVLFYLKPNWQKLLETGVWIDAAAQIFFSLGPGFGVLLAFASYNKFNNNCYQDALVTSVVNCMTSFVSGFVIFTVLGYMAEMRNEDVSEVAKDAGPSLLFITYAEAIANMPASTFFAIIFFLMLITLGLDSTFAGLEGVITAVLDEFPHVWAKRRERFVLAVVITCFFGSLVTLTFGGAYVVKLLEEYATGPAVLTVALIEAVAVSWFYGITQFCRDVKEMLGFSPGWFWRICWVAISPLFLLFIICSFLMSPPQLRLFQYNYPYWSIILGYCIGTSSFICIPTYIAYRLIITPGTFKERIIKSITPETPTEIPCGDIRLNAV

Structure (SMILES)	pIC50 (CYP2D6 [1])	pKi [2]	pKi [3]	pKi [4]	Test Example 4: Rate of CYP2D6 Contribution (CYP2D6 [5]) [%]	Rate of CYP2D6 Contribution indeterminable due to high stability for human microsomal metabolism (CYP2D6 [5])
COCCOc1cc(CC2CCN(CCc3ccc4c(c3)C(=O)CC4)CC2)ccc1Br [Example 1]	4.55	9.06	8.05	8.35	36	
COCCOc1cc(CC2CCN(CCc3ccc4c(c3)C(=O)CCC4)CC2)ccc1Br [Example 2, 7-(2-{4-[4-Bromo-3-(2-methoxyethoxy)benzyl]piperidin-1-yl}ethyl)-3,4-dihydronaphthalen-1(2H)-one]	4.89	9.15	8.80		12	
COCCOc1cc(CC2CCN(CCc3ccc4c(c3)C(=O)CCO4)CC2)ccc1Br.Cl [Example 4, 6-(2-{4-[4-Bromo-3-(2-methoxyethoxy)benzyl]piperidin-1-yl}ethyl)-2,3-dihydro-4H-chromen-4-one hydrochloride]	4.64				0	
COCCOc1cc(CC2CCN(CCc3ccc4c(c3)C(=O)CCCO4)CC2)ccc1Br [Example 6, 7-(2-{4-[4-Bromo-3-(2-methoxyethoxy)benzyl]piperidin-1-yl}ethyl)-3,4-dihydro-1-benzoxepin-5(2H)-one]	4.61	8.92	8.80		4.2	
COCCOc1cc(CC2CCN(CCc3ccc4c(c3)C(=O)CCO4)CC2)ccc1Cl [Example 7, 6-(2-{4-[4-Chloro-3-(2-methoxyethoxy)benzyl]piperidin-1-yl}ethyl)-2,3-dihydro-4H-chromen-4-one]	4.76	8.57	7.80		54	
COCCOc1cc(CC2CCN(CCc3ccc4c(c3)C(=O)CC4)CC2)ccc1C [Example 8, 6-(2-{4-[3-(2-Methoxyethoxy)-4-methylbenzyl]piperidin-1-yl}ethyl)-2,3-dihydro-1H-inden-1-one]	4.51	8.55		8.43	9.6	
COCCOc1cc(CC2CCN(CCc3ccc4c(c3)C(=O)CCC4)CC2)ccc1C [Example 9, 7-(2-{4-[3-(2-Methoxyethoxy)-4-methylbenzyl]piperidin-1-yl}ethyl)-3,4-dihydronaphthalen-1(2H)-one]	4.47	8.51		7.89	7.8	
COCCOc1cc(CC2CCN(CCc3ccc4c(c3)C(=O)CCO4)CC2)ccc1C [Example 10]	4.67	8.38	7.36		49	
O=C1CCc2ccc(CCN3CCC(Cc4ccc(Br)c(OCCO)c4)CC3)cc21 [Example 11, 6-(2-{4-[4-Bromo-3-(2-hydroxyethoxy)benzyl]piperidin-1-yl}ethyl)-2,3-dihydro-1H-inden-1-one]	4.61	8.19		8.42		—*^)
O=C1CCCc2ccc(CCN3CCC(Cc4ccc(Br)c(OCCO)c4)CC3)cc21 [Example 12, 7-(2-{4-[4-Bromo-3-(2-hydroxyethoxy)benzyl]piperidin-1-yl}ethyl)-3,4-dihydronaphthalen-1(2H)-one]	4.55	8.04		7.64	17	
O=C1CCCOc2ccc(CCN3CCC(Cc4ccc(Br)c(OCCO)c4)CC3)cc21 [Example 14, 7-(2-{4-[4-Bromo-3-(2-hydroxyethoxy)benzyl]piperidin-1-yl}ethyl)-3,4-dihydro-1-benzoxepin-5(2H)-one]	4.46	8.07		7.26		—*^)
COCCOc1cc(Br)cc(CC2CCN(CCc3ccc4c(c3)C(=O)CC4)CC2)c1 [Example 15, 6-(2-{4-[3-Bromo-5-(2-methoxyethoxy)benzyl]piperidin-1-yl}ethyl)-2,3-dihydro-1H-inden-1-one]	4.44	8.49		7.46	11	
COCCOc1cc(Br)cc(CC2CCN(CCc3ccc4c(c3)C(=O)CCC4)CC2)c1 [Example 16, 7-(2-{4-[3-Bromo-5-(2-methoxyethoxy)benzyl]piperidin-1-yl}ethyl)-3,4-dihydronaphthalen-1(2H)-one]	4.58	8.54		7.57	9.2	
COCCOc1cc(Br)cc(CC2CCN(CCc3ccc4c(c3)C(=O)CCO4)CC2)c1 [Example 17]	4.61	8.40	7.74		14	
COCCOc1cc(Br)cc(CC2CCN(CCc3ccc4c(c3)C(=O)CCCO4)CC2)c1 [Example 18, 7-(2-{4-[3-Bromo-5-(2-methoxyethoxy)benzyl]piperidin-1-yl}ethyl)-3,4-dihydro-1-benzoxepin-5(2H)-one]	4.56	8.21		6.53	0	
COCCOc1cc(Cl)cc(CC2CCN(CCc3ccc4c(c3)C(=O)CC4)CC2)c1 [Example 19, 6-(2-{4-[3-Chloro-5-(2-methoxyethoxy)benzyl]piperidin-1-yl}ethyl)-2,3-dihydro-1H-inden-1-one]	4.69	8.52		7.54	16	
COCCOc1cc(Cl)cc(CC2CCN(CCc3ccc4c(c3)C(=O)CCO4)CC2)c1 [Example 20, 6-(2-{4-[3-Chloro-5-(2-methoxyethoxy)benzyl]piperidin-1-yl}ethyl)-2,3-dihydro-4H-chromen-4-one]	4.63	8.62		7.24	24	
